Reference: patent US20230346791A1, “ATR INHIBITORS FOR THE TREATMENT OF CANCER” (AstraZeneca AB, priority 2020, published 2023)
Where two headings read alike, the source gives them in different places.

Settings: for dose-limiting toxicity (DLT): cohort of n=6 evaluable patients
Description: Overall Study Design: The study consisted of two parts, each evaluating the safety and tolerability of AZD6738 when given in combination with paclitaxel. An oral formulation of AZD6738 was used. The first part (Part A) was in combination with paclitaxel; the starting dose of 40 mg AZD6738 OD was escalated to reach a maximum tolerated dose in patients with advanced solid malignancies, as defined by dose-limiting toxicity. […] We made the number and doses of these cohorts flexible so that we could make adjustment as the PK data emerged. […] Dose escalations were conducted in each cohort independently; however, number and doses of the cohorts were to be subject to change as the PK data emerged.
Part A: We conducted a phase I trial for determining maximal tolerate dose (MTD) of AZD6738 when given in combination with fixed dose of paclitaxel in patients with refractory cancer. We used a rolling 6 design in this PART A. Treatment schedule was as follows. Start regimen (every 4 weeks): 40 mg OD dosing of AZD6738, 3 weeks on/ 1 week off; paclitaxel 80 mg/m2 on day 1, 8, 15 This part was in combination with paclitaxel of standard dose; starting dose of 40 mg AZD6738 OD was escalated to reach a maximum tolerated dose in metastatic solid cancer patients. Each cycle was composed of 4 weeks. The decision to dose escalate was to be made upon the assessment of the safety and tolerability data collected up until the time of study drug administration on Cycle 2, Day 1. This DLT assessment period was selected as the major toxicities leading to cessation of dose escalation in such studies (haematological, gastrointestinal, liver enzymes) were anticipated to present within this duration. Doses and/or schedules of AZD6738 were to be defined by the SRC. The cohort size of at least 3 and up to 6 patients (‘rolling six design’) was employed to improve the rate of accrual of patients to cohorts close to the presumed therapeutic dose by reducing the need for late replacement of patients who become non-evaluable during the DLT assessment period, whilst not compromising collection of safety data. […]

For `C[C@@H]1COCCN1c1cc(C2([S@](C)(=N)=O)CC2)nc(-c2cc[nH]c3nccc2-3)n1` [AZD6738, 4-{4-[(3R)-3-methylmorpholin-4-yl]-6-[1-((R)-S-methylsulfonimidoyl)cyclopropyl]pyrimidin-2-yl}-1H-pyrrolo[2,3-b]pyridine], the “dose-limiting toxicity (DLT)” value (AZD6738 160 mg BD days 1-14 with paclitaxel) was “One dose-limiting toxicity (DLT) of neutropenic fever”, the “dose-limiting toxicity (DLT)” value (AZD6738 240 mg BD days 1-14 with paclitaxel) was “One dose-limiting toxicity (DLT) of neutropenic fever” and the “maximum tolerated dose of AZD6738” value (days 1-14 of 28-day cycle, with paclitaxel 80 mg/m2, per protocol) was 240 mg BID.
